According to ChEMBL document CHEMBL5291721, “A preclinical secondary pharmacology resource illuminates target-adverse drug reaction associations of marketed drugs” (Nat Commun, 2023):

Assays:
[1] = target: Voltage-dependent L-type calcium channel subunit alpha-1C (Rattus norvegicus, UniProt P22002); format: functional
[2] = target: T1, Alpha-1A adrenergic receptor (Homo sapiens, UniProt P35348)
T1 sequence (P35348 whole entry): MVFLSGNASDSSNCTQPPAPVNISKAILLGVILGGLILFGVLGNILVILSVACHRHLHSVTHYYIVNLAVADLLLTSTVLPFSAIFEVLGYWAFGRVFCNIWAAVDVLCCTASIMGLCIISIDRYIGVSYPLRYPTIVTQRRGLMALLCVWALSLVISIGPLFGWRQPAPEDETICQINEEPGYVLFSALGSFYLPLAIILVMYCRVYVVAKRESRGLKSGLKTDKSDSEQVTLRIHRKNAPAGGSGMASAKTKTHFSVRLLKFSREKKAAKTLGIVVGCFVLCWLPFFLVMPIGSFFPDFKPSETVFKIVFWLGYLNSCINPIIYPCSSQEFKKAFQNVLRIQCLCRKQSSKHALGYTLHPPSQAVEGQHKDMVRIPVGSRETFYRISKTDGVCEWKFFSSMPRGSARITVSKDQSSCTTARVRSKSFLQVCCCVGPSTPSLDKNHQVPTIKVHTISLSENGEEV

[3] = target: T2, Cholecystokinin receptor type A (Homo sapiens, UniProt P32238)
T2 sequence (P32238 whole entry): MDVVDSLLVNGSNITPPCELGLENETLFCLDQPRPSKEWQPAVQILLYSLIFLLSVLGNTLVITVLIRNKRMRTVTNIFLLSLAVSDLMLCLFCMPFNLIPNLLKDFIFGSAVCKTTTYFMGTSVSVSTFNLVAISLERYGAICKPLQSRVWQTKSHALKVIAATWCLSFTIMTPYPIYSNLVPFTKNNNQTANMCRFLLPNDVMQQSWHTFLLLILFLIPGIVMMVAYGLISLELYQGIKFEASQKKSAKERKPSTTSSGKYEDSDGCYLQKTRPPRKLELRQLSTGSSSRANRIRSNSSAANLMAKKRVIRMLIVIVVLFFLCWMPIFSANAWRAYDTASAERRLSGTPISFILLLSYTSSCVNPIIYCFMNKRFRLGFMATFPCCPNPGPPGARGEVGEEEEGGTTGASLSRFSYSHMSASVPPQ

[4] = target: Beta-2 adrenergic receptor (Homo sapiens, UniProt P07550); format: functional, cell-based
Progesterone receptor = target: T3, Progesterone receptor (Homo sapiens, UniProt P06401); format: functional
T3 sequence (P06401 whole entry): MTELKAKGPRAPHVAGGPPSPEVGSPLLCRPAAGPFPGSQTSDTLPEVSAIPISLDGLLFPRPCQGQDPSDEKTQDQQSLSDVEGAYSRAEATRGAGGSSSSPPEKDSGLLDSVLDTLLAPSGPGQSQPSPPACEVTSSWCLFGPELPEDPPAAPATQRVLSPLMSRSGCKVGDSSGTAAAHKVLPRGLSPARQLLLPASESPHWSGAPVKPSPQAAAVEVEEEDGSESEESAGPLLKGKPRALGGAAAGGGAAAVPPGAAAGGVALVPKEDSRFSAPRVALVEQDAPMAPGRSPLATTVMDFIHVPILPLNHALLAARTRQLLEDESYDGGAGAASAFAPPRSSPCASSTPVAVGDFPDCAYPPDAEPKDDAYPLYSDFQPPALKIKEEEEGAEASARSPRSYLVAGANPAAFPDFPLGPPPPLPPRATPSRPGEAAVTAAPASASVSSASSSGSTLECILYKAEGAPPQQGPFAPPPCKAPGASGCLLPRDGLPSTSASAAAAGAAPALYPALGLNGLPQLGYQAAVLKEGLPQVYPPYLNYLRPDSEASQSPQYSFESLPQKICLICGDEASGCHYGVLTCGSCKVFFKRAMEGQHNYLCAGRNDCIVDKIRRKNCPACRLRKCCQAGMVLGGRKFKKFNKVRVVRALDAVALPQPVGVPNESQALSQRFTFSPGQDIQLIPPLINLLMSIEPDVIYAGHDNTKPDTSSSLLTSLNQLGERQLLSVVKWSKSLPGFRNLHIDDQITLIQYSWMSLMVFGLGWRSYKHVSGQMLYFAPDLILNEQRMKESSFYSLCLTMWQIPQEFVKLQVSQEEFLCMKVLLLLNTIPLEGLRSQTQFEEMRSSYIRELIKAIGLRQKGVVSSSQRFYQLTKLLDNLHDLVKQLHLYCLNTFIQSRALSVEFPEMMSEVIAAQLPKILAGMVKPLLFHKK

D(1A) dopamine receptor = D(1A) dopamine receptor (Homo sapiens, UniProt P21728)
Endothelin-1 receptor = target: T4, Endothelin-1 receptor (Homo sapiens, UniProt P25101)
T4 sequence (P25101 whole entry): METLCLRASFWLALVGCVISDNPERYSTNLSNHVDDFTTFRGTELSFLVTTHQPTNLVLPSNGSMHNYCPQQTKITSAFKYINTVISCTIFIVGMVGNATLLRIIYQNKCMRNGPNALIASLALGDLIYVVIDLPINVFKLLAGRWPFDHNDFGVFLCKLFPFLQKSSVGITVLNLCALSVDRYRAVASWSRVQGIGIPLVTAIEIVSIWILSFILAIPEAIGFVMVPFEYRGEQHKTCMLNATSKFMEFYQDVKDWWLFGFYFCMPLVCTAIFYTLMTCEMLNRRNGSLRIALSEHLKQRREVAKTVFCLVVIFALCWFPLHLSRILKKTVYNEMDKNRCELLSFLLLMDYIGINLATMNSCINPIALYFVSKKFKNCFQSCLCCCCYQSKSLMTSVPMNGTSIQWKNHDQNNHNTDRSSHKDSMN

[5] = target: T5, Gastrin/cholecystokinin type B receptor (Homo sapiens, UniProt P32239)
T5 sequence (P32239 whole entry): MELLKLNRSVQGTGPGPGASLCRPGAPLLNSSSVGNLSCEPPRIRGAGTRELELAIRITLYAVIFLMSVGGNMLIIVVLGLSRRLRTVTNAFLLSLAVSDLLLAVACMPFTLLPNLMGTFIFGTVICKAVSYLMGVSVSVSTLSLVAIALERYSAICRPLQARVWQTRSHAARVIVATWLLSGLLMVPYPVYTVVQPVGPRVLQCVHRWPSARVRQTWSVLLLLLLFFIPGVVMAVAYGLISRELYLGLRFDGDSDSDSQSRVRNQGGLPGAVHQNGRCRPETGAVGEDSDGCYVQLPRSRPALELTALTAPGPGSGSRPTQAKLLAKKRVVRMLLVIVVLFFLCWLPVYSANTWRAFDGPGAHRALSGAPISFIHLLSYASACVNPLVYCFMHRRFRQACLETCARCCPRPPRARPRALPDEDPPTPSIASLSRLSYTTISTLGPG
Further: assay procedure not described here.

Sequence of Voltage-dependent L-type calcium channel subunit alpha-1C (P22002 whole entry): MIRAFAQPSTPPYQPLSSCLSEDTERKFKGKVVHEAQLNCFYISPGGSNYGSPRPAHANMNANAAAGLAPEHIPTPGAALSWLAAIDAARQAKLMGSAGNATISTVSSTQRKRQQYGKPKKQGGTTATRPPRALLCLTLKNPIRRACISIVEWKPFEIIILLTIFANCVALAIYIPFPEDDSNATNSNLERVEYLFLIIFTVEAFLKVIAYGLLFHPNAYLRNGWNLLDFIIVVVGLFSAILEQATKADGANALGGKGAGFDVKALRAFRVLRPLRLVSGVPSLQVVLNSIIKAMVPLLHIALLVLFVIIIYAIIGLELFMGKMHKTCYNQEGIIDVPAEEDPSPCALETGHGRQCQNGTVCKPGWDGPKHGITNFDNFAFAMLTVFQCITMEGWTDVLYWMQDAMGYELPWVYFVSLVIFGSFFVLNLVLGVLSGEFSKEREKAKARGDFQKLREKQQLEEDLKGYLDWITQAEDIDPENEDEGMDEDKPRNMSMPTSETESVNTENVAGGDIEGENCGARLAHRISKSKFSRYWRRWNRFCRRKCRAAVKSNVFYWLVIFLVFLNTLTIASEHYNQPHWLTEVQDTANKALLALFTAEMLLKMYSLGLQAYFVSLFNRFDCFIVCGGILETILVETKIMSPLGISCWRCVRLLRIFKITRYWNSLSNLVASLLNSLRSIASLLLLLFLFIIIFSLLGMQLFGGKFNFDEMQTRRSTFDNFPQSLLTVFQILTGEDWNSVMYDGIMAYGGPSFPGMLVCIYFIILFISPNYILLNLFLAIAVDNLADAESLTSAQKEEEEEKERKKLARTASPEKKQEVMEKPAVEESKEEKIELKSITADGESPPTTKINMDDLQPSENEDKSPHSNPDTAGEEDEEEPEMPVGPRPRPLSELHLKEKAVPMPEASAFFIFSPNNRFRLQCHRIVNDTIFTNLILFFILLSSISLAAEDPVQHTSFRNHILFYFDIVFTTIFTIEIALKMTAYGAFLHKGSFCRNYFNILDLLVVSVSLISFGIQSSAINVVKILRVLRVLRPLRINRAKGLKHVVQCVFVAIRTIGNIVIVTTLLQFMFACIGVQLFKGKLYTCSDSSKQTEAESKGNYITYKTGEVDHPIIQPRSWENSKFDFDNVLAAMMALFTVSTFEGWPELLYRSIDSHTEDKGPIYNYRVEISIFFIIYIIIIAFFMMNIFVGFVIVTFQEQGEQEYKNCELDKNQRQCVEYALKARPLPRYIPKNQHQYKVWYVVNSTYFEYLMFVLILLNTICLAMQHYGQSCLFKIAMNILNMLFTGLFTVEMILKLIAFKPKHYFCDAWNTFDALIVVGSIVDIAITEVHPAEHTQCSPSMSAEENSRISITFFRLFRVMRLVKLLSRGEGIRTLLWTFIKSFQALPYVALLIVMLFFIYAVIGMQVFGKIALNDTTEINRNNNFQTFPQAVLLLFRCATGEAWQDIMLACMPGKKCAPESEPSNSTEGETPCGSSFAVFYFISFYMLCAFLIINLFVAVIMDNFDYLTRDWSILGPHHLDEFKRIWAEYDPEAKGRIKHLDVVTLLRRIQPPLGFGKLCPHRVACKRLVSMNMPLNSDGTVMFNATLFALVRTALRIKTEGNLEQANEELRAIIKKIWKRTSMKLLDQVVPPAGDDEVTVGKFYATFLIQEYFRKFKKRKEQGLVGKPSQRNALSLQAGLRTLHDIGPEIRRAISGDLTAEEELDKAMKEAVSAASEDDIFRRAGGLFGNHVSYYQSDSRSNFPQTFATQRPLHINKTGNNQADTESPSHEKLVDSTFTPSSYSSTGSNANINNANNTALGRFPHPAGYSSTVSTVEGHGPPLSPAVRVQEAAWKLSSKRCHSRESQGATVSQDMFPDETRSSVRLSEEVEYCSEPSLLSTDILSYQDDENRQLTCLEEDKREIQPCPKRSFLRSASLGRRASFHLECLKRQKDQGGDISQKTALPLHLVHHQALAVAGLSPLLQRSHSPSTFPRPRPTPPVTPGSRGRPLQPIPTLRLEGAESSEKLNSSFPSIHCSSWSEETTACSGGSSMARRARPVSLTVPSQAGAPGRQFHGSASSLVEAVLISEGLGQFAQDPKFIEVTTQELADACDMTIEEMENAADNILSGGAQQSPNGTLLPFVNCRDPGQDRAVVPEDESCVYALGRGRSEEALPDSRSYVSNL
Sequence of D(1A) dopamine receptor (P21728 whole entry): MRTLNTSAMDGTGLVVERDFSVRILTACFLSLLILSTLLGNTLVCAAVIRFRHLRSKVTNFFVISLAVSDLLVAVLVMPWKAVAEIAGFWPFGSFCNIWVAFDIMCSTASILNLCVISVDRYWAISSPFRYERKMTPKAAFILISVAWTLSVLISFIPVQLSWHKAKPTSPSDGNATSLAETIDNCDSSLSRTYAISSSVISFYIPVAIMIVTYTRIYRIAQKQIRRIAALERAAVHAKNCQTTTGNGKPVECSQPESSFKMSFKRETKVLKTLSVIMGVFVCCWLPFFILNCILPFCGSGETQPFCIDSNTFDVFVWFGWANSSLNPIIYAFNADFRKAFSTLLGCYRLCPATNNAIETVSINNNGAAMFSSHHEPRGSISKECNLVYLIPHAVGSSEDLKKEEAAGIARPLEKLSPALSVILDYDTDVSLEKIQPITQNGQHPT
Sequence of Beta-2 adrenergic receptor (P07550 whole entry): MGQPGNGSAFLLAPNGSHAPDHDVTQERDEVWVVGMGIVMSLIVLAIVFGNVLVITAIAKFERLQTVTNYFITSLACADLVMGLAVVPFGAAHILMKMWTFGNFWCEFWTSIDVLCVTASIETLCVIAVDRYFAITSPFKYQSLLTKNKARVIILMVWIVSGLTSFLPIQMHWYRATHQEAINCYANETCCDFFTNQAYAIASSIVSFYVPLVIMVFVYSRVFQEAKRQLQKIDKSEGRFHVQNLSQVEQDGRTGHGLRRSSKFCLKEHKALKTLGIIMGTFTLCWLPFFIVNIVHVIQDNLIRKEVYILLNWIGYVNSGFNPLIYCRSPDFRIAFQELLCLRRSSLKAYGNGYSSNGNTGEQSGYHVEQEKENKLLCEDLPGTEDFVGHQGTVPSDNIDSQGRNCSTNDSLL

| SMILES | AC50 [1] [µM] | AC50 [2] [µM] | AC50 [3] [µM] | AC50 [4] [µM] | AC50 (Progesterone receptor) [µM] | AC50 (D(1A) dopamine receptor) [µM] | AC50 (Endothelin-1 receptor) [µM] | AC50 [5] [µM] |
| --- | --- | --- | --- | --- | --- | --- | --- | --- |
| C[N+](C)(C)CCOC(N)=O [CARBAMOYLCHOLINE] | > 10 | > 10 | > 10 | > 30 | > 10 |  |  |  |
| CN1C(=O)N(C)C2C1N(C)C(=O)N2C (centres undefined) [MEBICAR] |  |  |  | > 30 |  | > 30 |  |  |
| CN(C)CCCN1c2ccccc2Sc2ccccc21 [PROMAZINE] | > 10 | 0.0171 | > 30 | > 30 |  |  | > 30 | > 30 |
| N[C@@H](CSCC(=O)O)C(=O)O [CARBOCYSTEINE] | > 30 |  | > 30 |  | > 30 |  | > 30 | > 30 |
| Nc1ccc(/N=N/c2ccccc2)c(N)n1 [PHENAZOPYRIDINE] |  |  |  | > 30 |  | > 30 |  |  |
| Cn1cc[nH]c1=S [METHIMAZOLE] |  |  |  |  |  | > 30 |  |  |
| CN(CCCN1c2ccccc2CCc2ccccc21)CC(=O)c1ccc(Cl)cc1 [LOFEPRAMINE] | 2.4 |  | > 30 | > 30 |  |  | > 30 | > 30 |
| NS(=O)(=O)c1cc(Cl)c(Cl)c(S(N)(=O)=O)c1 [DICHLORPHENAMIDE] | > 10 | > 10 | > 10 | > 30 | > 10 |  |  |  |
| CC(=O)N[C@H]1[C@H]([C@H](O)[C@H](O)CO)OC(C(=O)O)=C[C@@H]1N=C(N)N [ZANAMIVIR] | > 30 | > 30 | > 30 |  | > 30 |  |  | > 30 |
| C[N+](C)(C)CC(=O)O [BETAINE] | > 30 |  | > 30 |  | > 30 |  | > 30 | > 30 |
| CC(=O)N(CC(O)CO)c1c(I)c(C(=O)NCC(O)CO)c(I)c(C(=O)NCC(O)CO)c1I (centres undefined) [IOHEXOL] | > 10 | > 10 | > 30 |  |  |  |  | > 30 |
| CN(C/C=C/c1ccccc1)Cc1cccc2ccccc12 [NAFTIFINE] | > 10 | 2.15 | > 30 | > 30 | > 30 |  |  | > 30 |
| Nc1nc(-n2cc(C(=O)O)c(=O)c3cc(F)c(N4CC(O)C4)c(Cl)c32)c(F)cc1F [DELAFLOXACIN] |  |  |  |  |  | > 30 |  |  |
| O=C(O)c1cccc(-c2noc(-c3ccccc3F)n2)c1 |  | > 10 |  |  |  |  |  |  |
| NS(=O)(=O)c1cc(-c2nnn[nH]2)c(NCc2cccs2)cc1Cl [AZOSEMIDE] | > 30 |  | > 30 |  | > 30 |  | > 30 | > 30 |
| C=C1C[C@@H]2[C@H](CC[C@]3(C)C(=O)CC[C@@H]23)[C@@]2(C)C=CC(=O)C=C12 [EXEMESTANE] | > 10 | > 10 | > 30 | > 30 |  |  | > 30 | > 30 |

| SMILES | AC50 [1] [µM] | AC50 [2] [µM] | AC50 [3] [µM] | AC50 [4] [µM] | AC50 (Progesterone receptor) [µM] | AC50 (D(1A) dopamine receptor) [µM] | AC50 (Endothelin-1 receptor) [µM] | AC50 [5] [µM] |
| --- | --- | --- | --- | --- | --- | --- | --- | --- |
| CCCC(=O)N1CCCN(c2nc(N)c3cc(OC)c(OC)cc3n2)CC1 [BUNAZOSIN] |  |  | > 30 | > 30 | > 30 |  | > 30 | > 30 |
| O=C(O)CCn1c2c(c3ccccc31)C[C@H](NS(=O)(=O)c1ccc(F)cc1)CC2 [RAMATROBAN] | > 10 | > 30 | 24.8 |  | > 30 |  | > 10 | > 30 |
| NC(=O)c1cccc2cn(-c3ccc([C@@H]4CCCNC4)cc3)nc12 [NIRAPARIB] |  |  |  |  |  | > 30 |  |  |
| CC(C)NCC1CCc2cc(CO)c([N+](=O)[O-])cc2N1 (centres undefined) [OXAMNIQUINE] | > 10 | > 10 | > 10 |  | > 10 |  |  |  |
| CC(C)=CCC1C(=O)N(c2ccccc2)N(c2ccccc2)C1=O [FEPRAZONE] |  |  |  |  |  | > 30 |  |  |
| O=C(Nc1ccccc1)OCC(CN1CCCCC1)OC(=O)Nc1ccccc1 (centres undefined) [DIPERODON] |  | > 10 | 15 | > 30 |  |  | > 30 | > 30 |
| CC(=O)O[C@]1(C(C)=O)CC[C@H]2[C@@H]3C[C@H](C)C4=CC(=O)CC[C@]4(C)[C@H]3CC[C@@]21C [MEDROXYPROGESTERONE ACETATE] |  |  | > 30 |  |  |  | > 30 | > 30 |
| CC(C)(N)Cc1ccc(Cl)cc1 [CHLORPHENTERMINE] | > 10 | > 10 | > 30 | > 30 |  |  | > 30 | > 30 |
| O=P(O)(O)C(O)(Cc1cccnc1)P(=O)(O)O [RISEDRONIC ACID] | > 30 | > 10 | > 30 |  | > 30 |  | > 30 | > 30 |
| CC(C(O)c1ccc(O)cc1)N1CCC(Cc2ccccc2)CC1 (centres undefined) [IFENPRODIL] | > 30 |  | > 30 | > 30 | > 30 |  | > 30 | > 30 |
| CC1=NN(c2ccccc2)C(=O)C1 [EDARAVONE] |  |  |  |  |  | > 30 |  |  |
| CS(=O)(=O)Nc1cc2occ(NC=O)c(=O)c2cc1Oc1ccccc1 [IGURATIMOD] |  |  |  |  | > 30 |  |  |  |
| O=C1CCC(N2C(=O)c3ccccc3C2=O)C(=O)N1 (centres undefined) [THALIDOMIDE] | > 10 | > 10 | > 30 | > 30 |  |  | > 30 | > 30 |
| O=C(Cn1ccnc1[N+](=O)[O-])NCc1ccccc1 [BENZNIDAZOLE] | > 30 |  | > 30 |  | > 30 | > 30 | > 30 | > 30 |
| CN(C)[C@@H]1C(O)=C(C(N)=O)C(=O)[C@@]2(O)C(O)=C3C(=O)c4c(O)ccc(Cl)c4[C@@H](O)[C@H]3C[C@@H]12 [DEMECLOCYCLINE] | > 10 | > 10 | > 10 |  |  |  |  |  |
